Results as given in patent US7824672B2, “Method for coating living cells” (Emory University, priority 2004, dated 2010).
Residues, ends and D or L forms follow the SMILES beside them. *: point of attachment. Cbz = O=C(OCc1ccccc1)*; CH2F = FC*

Tests used:
rat islets = test: Viability of encapsulated rat islets after overnight culture; type: cell-based; settings: nicotinamide 10 mM, Z-VAD.fmk 40 μM
Protocol: Transplantation of islets microencapsulated within a membrane-mimetic barrier. Evaluation of cell viability. Initial experiments used CHO cells as a readily available model system to assess cell viability after encapsulation. Cells were suspended into alginate solution at 6×10^6 cells/mL and then coated with a photopolymerized membrane-mimetic lipid film. Cell viability of >95% at 24 and 48 hours was confirmed using a Live/Dead cell assay (Molecular Probes, Inc.). In the next phase of this effort, we determined the viability of encapsulated rat islets (103). Rat islets were isolated from outbred male Wistar rats and suspended at a concentration of 1000 islets in 0.25 mL of 2% alginate (UP LVM, Pronova Biomedical, Norway). Alginate encapsulated islets were coated with a membrane-mimetic film and after overnight culture viability was graded with respect to the proportion of viable cells within a given islet.

[1] = systemic; cited from earlier work
[2] = system: islet-induced coagulation; settings: ex vivo model; cited from earlier work
Factor V = settings: cited from earlier work
[3] = biotin binding sites; cited from earlier work
[4] = CD39 ATPase activity kinetics (inorganic phosphate release); type: biochemical; settings: substrate ATP 50-1500 μM; vesicles: molar ratio CD39:POPC 1:33,613
Source text: (§1) We have expressed and purified human CD39 from Pichia pastoris and confirmed both ecto-ATPase and ecto-ADPase activity. […] Briefly, the plasmid carrying the CD39 human coding sequence was provided by Dr. Simon C. Robson (Harvard Medical School, USA). Polymerase chain reaction (PCR) was utilized to add a Kozak sequence flanked by EcoRI to the […] of CD39 and a FLAG tag flanked by XbaI to the 3′ end of CD39. The construct was harbored in pCR 2.1-TOPO (Invitrogen, San Diego, Calif.) and multiplied in One Shot Top10 (Invitrogen). To express CD39 in yeast, the EcoRI/XbaI digestion product was cloned into pPICZ (Invitrogen) and transformed into Pichia pastoris strain SMD1168 (Invitrogen). The expression construct was confirmed through DNA sequencing analysis. P. pastoris cultures were grown at 30° C. and expression induced for 4 days with 0.5% methanol. Cells were harvested, resuspended in breaking buffer, and cell lysates centrifuged to separate membrane and soluble fractions. […] CD39 was extracted from membrane fractions using 1% Igepal CA-630 and purified on anti-FLAG M2 affinity columns (Sigma, Saint Louis, Mo.). Kinetic parameters were measured for both detergent-solubilized CD39 and for protein reconstituted in POPC lipid vesicles at varying molar ratios of CD39 to lipid (1:85,714, 1:33,613, 1:16,806). […] Inorganic phosphate was measured as described by Ames (116). […]

[5] = CD39 ADPase activity kinetics (inorganic phosphate release); type: biochemical; settings: substrate ADP 50-1500 μM; vesicles: molar ratio CD39:POPC 1:33,613
Source text: as §1

In the case of `COC(=O)C[C@H](NC(=O)[C@H](C)NC(=O)[C@@H](NC(=O)OCc1ccccc1)C(C)C)C(=O)CF` [Z-VAD.fmk] (Cbz-Val-Ala-Asp(OMe)-CH2F), the “effect of anti-apoptotic agent on islet viability” value (rat islets) is reported as “important adjuncts for maximizing islet viability”.

For heparin, the half-life [1] is given as “one hour”, the “concentration that prevented islet-induced coagulation” value [2] is given as 4 U/mL blood and the “enhancement of APC's ability to inactivate Factor V” value (Factor V) is given as “four-fold”.

For “avidin: biotin binding protein with four biotin binding sites”, the “binding affinity (log)” value [3] is given as > 15.

With `NC(=O)c1cccnc1` [nicotinamide] the “effect of anti-apoptotic agent on islet viability” value (rat islets) was “important adjuncts for maximizing islet viability”.

B1: Free CD39: detergent-solubilized human CD39 expressed in Pichia pastoris, FLAG tagged (protein, UniProt P49961 1-510, looked up)
Ectonucleoside triphosphate …: MEDTKESNVKTFCSKNILAILGFSSIIAVIALLAVGLTQNKALPENVKYGIVLDAGSSHTSLYIYKWPAEKENDTGVVHQVEECRVKGPGISKFVQKVNEIGIYLTDCMERAREVIPRSQHQETPVYLGATAGMRLLRMESEELADRVLDVVERSLSNYPFDFQGARIITGQEEGAYGWITINYLLGKFSQKTRWFSIVPYETNNQETFGALDLGGASTQVTFVPQNQTIESPDNALQFRLYGKDYNVYTHSFLCYGKDQALWQKLAKDIQVASNEILRDPCFHPGYKKVVNVSDLYKTPCTKRFEMTLPFQQFEIQGIGNYQQCHQSILELFNTSYCPYSQCAFNGIFLPPLQGDFGAFSAFYFVMKFLNLTSEKVSQEKVTEMMKKFCAQPWEEIKTSYAGVKEKYLSEYCFSGTYILSLLLQGYHFTADSWEHIHFIGKIQGSDAGWTLGYMLNLTNMIPAEQPLSTPLSHSTYVFLMVLFSLVLFTVAIIGLLIFHKPSYFWKDMV
modifications: FLAG tag
notes: detergent-solubilized human CD39 expressed in Pichia pastoris, FLAG tagged
With B1 the Km [4] was 58.5 µM and the Km [5] was 45.8 µM.
